From patent publication US12396459B2, “Synergistically effective herbicide composition comprising pyridate and at least one defined 4-HPPD inhibitor” (BELCHIM CROP PROTECTION NV, priority 2018, dated 2025)

What was measured:
Assay type in all cases: in vivo
[1] = system: Tripleurospermum inodorum; test: Field trial post-emergence in maize: MATIN; conditions: for herbicidal effect (h.e.): # = 1, g a.c./ha: PYR 300, MES 100, PYR + MES 300 + 90
Experimental: (§1) Herbicidal activity of herbicide compositions according to the first aspect of the present invention with regard to different types of unwanted vegetation was determined during trials performed on test fields (field trials). Individual compositions comprising pyridate and individual compositions comprising a defined 4-HPPD inhibitor are compared with a herbicide composition according to the invention comprising both pyridate and a defined 4-HPPD inhibitor. The expected activity of the combination of the active compounds pyridate and a defined 4-HPPD inhibitor is calculated according to above mentioned calculation method by Colby, in order to evaluate a synergistic effect between pyridate and a defined 4-HPPD inhibitor.
(§2) Herbicidal activity was determined by applying herbicide compositions on emerged unwanted vegetation on fields where maize was cultivated. Pyridate and a defined 4-HPPD inhibitor were applied as a tank mixture by mixing these active compounds prior to use in a spray tank. The corresponding mixture was in the form of a spray liquor. Besides, spray liquors of individual compositions comprising pyridate and of individual compositions comprising a defined 4-HPPD inhibitor were used. Test plants of unwanted vegetation with a growth stage corresponding to BBCH 10-18 (according to the extended BBCH-scale) were sprayed with the active compound preparations such that particular desired amounts of active compounds are applied per unit area. Spray liquor was diluted with water to arrive at an application volume of 50 to 450 L/ha. At a specified number of days after application (DAA), the degree of damage to the unwanted vegetation is rated in % of plants of unwanted vegetation that were killed, which was assessed by visually controlling the plants.

Echinochloa crus-galli = test: Examples 6-8 herbicidal effect: ECHCG; conditions: 7 DAA
Papaver rhoeas = test: Field trial post-emergence in maize: PAPRH; conditions: # = 1, g a.c./ha: PYR 300, MES 100, PYR + MES 300 + 90
Experimental: as §1, §2

Poa annua [2] = test: Field trial post-emergence in maize: POAAN; conditions: for herbicidal effect (h.e.): g a.c./ha: PYR 300, MES 100, PYR + MES 300 + 90
Experimental: as §1, §2

Anagallis arvensis = test: Field trial post-emergence in maize: ANGAR; conditions: 7-14 DAA; # = 2; g a.c./ha: PYR 300, MES 100, PYR + MES 300 + 90
Experimental: as §1
(§3) Herbicidal activity was determined by applying herbicide compositions on emerged unwanted vegetation on fields where maize was cultivated. Pyridate and a defined 4-HPPD inhibitor were applied as a tank mixture by mixing these active compounds prior to use in a spray tank. The corresponding mixture was in the form of a spray liquor. […] At a specified number of days after application (DAA), the degree of damage to the unwanted vegetation is rated in % of plants of unwanted vegetation that were killed, which was assessed by visually controlling the plants.

Galium aparine = test: Field trial post-emergence in maize: GALAP
Experimental: as §1, §2
(§4) Example 1 concerns a herbicide composition comprising a combination of pyridate and mesotrione, which was applied post-emergence on unwanted vegetation on a field where maize was cultivated, according to the test conditions mentioned above.

Datura stramonium = test: Field trial post-emergence in maize: DATST; conditions: 7-14 DAA; # = 2; g a.c./ha: PYR 300, MES 100, PYR + MES 300 + 90
Experimental: as §1, §3

Brassica napus (winter) = test: Field trial post-emergence in maize: BRSNW; conditions: # = 1, g a.c./ha: PYR 300, MES 100, PYR + MES 300 + 90
Experimental: as §1, §2

Sonchus oleraceus = test: Field trial post-emergence in maize: SONOL; conditions: # = 1, g a.c./ha: PYR 300, MES 100, PYR + MES 300 + 90
Experimental: as §1, §2

Solanum nigrum = test: Examples 6-8 herbicidal effect: SOLNI; conditions: 7 DAA
Setaria viridis = test: Field trial post-emergence in maize: SETVI
Experimental: as §1, §2, §4

Amaranthus retroflexus = test: Field trial post-emergence in maize: AMARE; conditions: 13-14 DAA; # = 1; g a.c./ha: PYR 450, MES 144, PYR + MES 450 + 144
Experimental: as §1, §2

Sorghum halepense = test: Field trial post-emergence in maize: SORHA; conditions: 7-14 DAA; # = 1; g a.c./ha: PYR 300, MES 100, PYR + MES 300 + 90
Experimental: as §1, §3

Matricaria chamomilla = test: Field trial post-emergence in maize: MATCH
Experimental: as §1, §2, §4

Atriplex patula = test: Field trial post-emergence in maize: ATXPA
Experimental: as §1, §2, §4

Poa annua [3] = test: Examples 6-8 herbicidal effect: POAAN; conditions: 7 DAA
Stellaria media = test: Field trial post-emergence in maize: STEME
Experimental: as §1, §2

Abutilon theophrasti = test: Field trial post-emergence in maize: ABUTH; conditions: 31-48 DAA; # = 2; g a.c./ha: PYR 300, MES 100, PYR + MES 300 + 90
Experimental: as §1, §3

Geranium dissectum = test: Examples 6-8 herbicidal effect: GERDI; conditions: 7 DAA
[4] = g a.c./ha: MES 50, PYR + SMO 300 + 800
[5] = g a.c./ha: MES 80, PYR + MES 300 + 50

In the case of `CS(=O)(=O)c1ccc(C(=O)C2C(=O)CCCC2=O)c([N+](=O)[O-])c1` [MES, 2-(4-methylsulfonyl-2-nitrobenzoyl) cyclohexane-1,3-dione], the “herbicidal effect (h.e.)” value ([1]; 7-14 DAA) is reported as 77%, the “herbicidal effect (h.e.)” value ([1]; 18-28 DAA) is reported as 78% and the “herbicidal effect (h.e.)” value ([1]; 31-48 DAA) is reported as 80%. The MES h.e. ([1]; MATIN 24-31 DAA 45 g a.c./ha) was 80%, the “herbicidal effect (h.e.)” value (Echinochloa crus-galli; [4]) was 70% and the “herbicidal effect (h.e.)” value (Echinochloa crus-galli; [5]) was 73%. For the same compound, the “herbicidal effect (h.e.)” value (Papaver rhoeas; 18-28 DAA) was 80%, the “herbicidal effect (h.e.)” value (Papaver rhoeas; 31-48 DAA) was 89% and the “herbicidal effect (h.e.)” value (Poa annua [2]; 7-14 DAA, # = 2) was 39%. The “herbicidal effect (h.e.)” value (Poa annua [2]; 18-28 DAA, # = 3) was 36%, the “herbicidal effect (h.e.)” value (Poa annua [2]; 31-48 DAA, # = 2) was 27% and the MES h.e. (Poa annua [2]; POAAN 14-20 DAA 45 g a.c./ha) was 24%. For the same compound, the MES h.e. (Poa annua [2]; POAAN 14-20 DAA 90 g a.c./ha) was 48%, the MES h.e. (Poa annua [2]; POAAN 14-20 DAA 135 g a.c./ha) was 58% and the MES h.e. (Poa annua [2]; POAAN 24-31 DAA 45 g a.c./ha) was 17%. For the same compound, the MES h.e. (Poa annua [2]; POAAN 24-31 DAA 90 g a.c./ha) was 22%, the MES h.e. (Poa annua [2]; POAAN 24-31 DAA 135 g a.c./ha) was 38% and the “herbicidal effect (h.e.)” value (Anagallis arvensis) was 98%. The MES h.e. (Galium aparine; GALAP 14-20 DAA 45 g a.c./ha) was 30%, the MES h.e. (Galium aparine; GALAP 14-20 DAA 90 g a.c./ha) was 80% and the MES h.e. (Galium aparine; GALAP 14-20 DAA 135 g a.c./ha) was 92%. It also gave an MES h.e. (Galium aparine; GALAP 24-31 DAA 45 g a.c./ha) of 40%, an MES h.e. (Galium aparine; GALAP 24-31 DAA 90 g a.c./ha) of 90% and an MES h.e. (Galium aparine; GALAP 24-31 DAA 135 g a.c./ha) of 91%. For the same compound, the “herbicidal effect (h.e.)” value (Datura stramonium) was 98%, the “herbicidal effect (h.e.)” value (Brassica napus (winter); 7-14 DAA) was 98% and the “herbicidal effect (h.e.)” value (Brassica napus (winter); 18-28 DAA) was 99%. The “herbicidal effect (h.e.)” value (Sonchus oleraceus; 7-14 DAA) was 90%, the “herbicidal effect (h.e.)” value (Sonchus oleraceus; 18-28 DAA) was 54% and the “herbicidal effect (h.e.)” value (Sonchus oleraceus; 31-48 DAA) was 41%. For the same compound, the “herbicidal effect (h.e.)” value (Solanum nigrum; [4]) was 67%, the “herbicidal effect (h.e.)” value (Solanum nigrum; [5]) was 54% and the MES h.e. (Setaria viridis; SETVI 14-20 DAA 45 g a.c./ha) was 83%. For the same compound, the MES h.e. (Setaria viridis; SETVI 14-20 DAA 90 g a.c./ha) was 92%, the MES h.e. (Setaria viridis; SETVI 14-20 DAA 135 g a.c./ha) was 95% and the MES h.e. (Setaria viridis; SETVI 24-31 DAA 45 g a.c./ha) was 72%. For the same compound, the MES h.e. (Setaria viridis; SETVI 24-31 DAA 90 g a.c./ha) was 92%, the MES h.e. (Setaria viridis; SETVI 24-31 DAA 135 g a.c./ha) was 95% and the “herbicidal effect (h.e.)” value (Amaranthus retroflexus) was 45%. For the same compound, the “herbicidal effect (h.e.)” value (Sorghum halepense) was 42%, the MES h.e. (Matricaria chamomilla; MATCH 14-20 DAA 45 g a.c./ha) was 53% and the MES h.e. (Matricaria chamomilla; MATCH 14-20 DAA 90 g a.c./ha) was 72%. It also gave an MES h.e. (Matricaria chamomilla; MATCH 14-20 DAA 135 g a.c./ha) of 81%, an MES h.e. (Matricaria chamomilla; MATCH 24-31 DAA 45 g a.c./ha) of 43% and an MES h.e. (Matricaria chamomilla; MATCH 24-31 DAA 90 g a.c./ha) of 77%. It also gave an MES h.e. (Matricaria chamomilla; MATCH 24-31 DAA 135 g a.c./ha) of 93%, an MES h.e. (Atriplex patula; ATXPA 24-31 DAA 90 g a.c./ha) of 97% and an MES h.e. (Atriplex patula; ATXPA 24-31 DAA 135 g a.c./ha) of 97%. For the same compound, the “herbicidal effect (h.e.)” value (Poa annua [3]; [4]) was 0%, the “herbicidal effect (h.e.)” value (Poa annua [3]; [5]) was 3% and the “herbicidal effect (h.e.)” value (Stellaria media; 18-28 DAA, # = 4, g a.c./ha: PYR 300, MES 100, PYR + MES 300 + 90) was 98%. The MES h.e. (Stellaria media; STEME 14-20 DAA 45 g a.c./ha) was 78%, the MES h.e. (Stellaria media; STEME 14-20 DAA 90 g a.c./ha) was 93% and the MES h.e. (Stellaria media; STEME 14-20 DAA 135 g a.c./ha) was 93%. For the same compound, the MES h.e. (Stellaria media; STEME 24-31 DAA 45 g a.c./ha) was 70%, the MES h.e. (Stellaria media; STEME 24-31 DAA 90 g a.c./ha) was 87% and the MES h.e. (Stellaria media; STEME 24-31 DAA 135 g a.c./ha) was 93%. For the same compound, the “herbicidal effect (h.e.)” value (Abutilon theophrasti) was 91%, the “herbicidal effect (h.e.)” value (Geranium dissectum; [4]) was 15% and the “herbicidal effect (h.e.)” value (Geranium dissectum; [5]) was 15%.
